Among the data in ChEMBL document CHEMBL1127256, “Synthesis of C2-symmetric inhibitors of the HIV-1 protease, with N,N-substituted ethylenediamide and ethylenediamine linkers” (Bioorg Med Chem Lett, 1994) are inhibition and IC50 values, retold here.

Experiment [1] concerns the target Human immunodeficiency virus type 1 protease (Human immunodeficiency virus 1) (UniProt Q72874). The experiment in a line: Percent inhibition of HIV-1 protease against substrate SQN-(pNO2)F-PIV (test II) at a concentration of 10 e-5M.
Experiment [2] has the same target. The experiment in a line: Percent inhibition of HIV-1 protease against substrate TLNFPIS-AMC (test I) at a concentration of 10 e-5M.
For experiment [3] the target is unchanged. The experiment in a line: Percent inhibition of HIV-1 protease against substrate HKARVL-(NO2)F-EAnLSNH2 (test III) at a concentration of 10 e-5M.
For experiment [4] the target is unchanged. The experiment in a line: Percent inhibition of HIV-1 protease against substrate HKARVL-(NO2)F-EAnLSNH2 (test III) at a concentration of 10 e-5M; Inactive.
The target is the same in experiment [5]. The experiment in a line: Percent inhibition of HIV-1 protease against substrate SQN-(pNO2)F-PIV (test II) at a concentration of 10 e-5M; Inactive.
Experiment [6] has the same target. The experiment in a line: Percent inhibition of HIV-1 protease against substrate TLNFPIS-AMC (test I) at a concentration of 10 e-5M; Inactive.
Experiment [7] addresses Human immunodeficiency virus type 1 protease (Human immunodeficiency virus 1, UniProt Q72874). The experiment in a line: Inhibitory concentration against HIV-1 protease.

Active and inactive are the calls of the source. The rule behind the calls is not given here. Where only a bound is given, the exact number is not on record here.

Usually inhibition stands for the drop in the measured response relative to a control, in per cent. For `CC(C)[C@H](NC(=O)OCc1ccccc1)C(=O)N[C@@H](Cc1ccccc1)CN(CCO)CCN(CCO)C[C@H](Cc1ccccc1)NC(=O)[C@H](NC(=O)OCc1ccccc1)C(C)C`, the inhibition stood at 30% in experiment [1], 8% in experiment [2] and 9% in experiment [3].
For `CC(C)[C@H](NC(=O)OCc1ccccc1)C(=O)N[C@@H](Cc1ccccc1)CN(CCN(C[C@H](Cc1ccccc1)NC(=O)[C@H](NC(=O)OCc1ccccc1)C(C)C)C(=O)OC(C)(C)C)C(=O)OC(C)(C)C`, the inhibition in experiment [1] and in experiment [2] was 3% throughout. Also, in experiment [4], the inhibition result was “inactive”.
For `CC(C)[C@H](NC(=O)OCc1ccccc1)C(=O)N[C@@H](Cc1ccccc1)CN(C)CCN(C)C[C@H](Cc1ccccc1)NC(=O)[C@H](NC(=O)OCc1ccccc1)C(C)C`, the inhibition in experiment [1] and in experiment [2] was 3% throughout. Further, the inhibition entry in experiment [4] was “inactive”.
In the case of `CC(C)[C@H](NC(=O)OCc1ccccc1)C(=O)N[C@@H](Cc1ccccc1)CN(CCN(CC(=O)O)C[C@H](Cc1ccccc1)NC(=O)[C@H](NC(=O)OCc1ccccc1)C(C)C)CC(=O)O`, the inhibition came to 53% in experiment [1], 36% in experiment [2] and 33% in experiment [3].
As for `CC(C)[C@H](NC(=O)OCc1ccccc1)C(=O)N[C@@H](Cc1ccccc1)C(=O)N(C)CCN(C)C(=O)[C@H](Cc1ccccc1)NC(=O)[C@H](NC(=O)OCc1ccccc1)C(C)C`, the inhibition entry in experiment [5] and in experiment [6] was “inactive” in each case. In addition, in experiment [3], the inhibition was determined as 16%.
Turning to `CC(C)[C@H](NC(=O)OCc1ccccc1)C(=O)N[C@H](CNCCNC[C@H](Cc1ccccc1)NC(=O)[C@H](NC(=O)OCc1ccccc1)C(C)C)Cc1ccccc1`, the inhibition in experiment [1] and in experiment [2] was 3% in each case. Further, the inhibition result in experiment [4] is “inactive”.
As a reminder, the IC50 is the concentration that gives 50% inhibition. Higher therefore signals lower potency. Take `CC(C)[C@H](NC(=O)OCc1ccccc1)C(=O)N[C@@H](Cc1ccccc1)[C@@H](O)[C@H](O)[C@H](Cc1ccccc1)NC(=O)[C@H](NC(=O)OCc1ccccc1)C(C)C`: the IC50 in experiment [7] was < 1 nM.
For the compound `CC(C)[C@H](NC(=O)OCc1ccccc1)C(=O)N[C@@H](Cc1ccccc1)C(=O)NCCNC(=O)[C@H](Cc1ccccc1)NC(=O)[C@H](NC(=O)OCc1ccccc1)C(C)C`, the inhibition result in experiment [5] and in experiment [6] was “inactive” in each case. Moreover, in experiment [3], the inhibition came to 25%.
